Series [1] concerns caspase-8. The series is described as follows: Caspase-8 activity in cortical neuron lysate. The series is classed as cell-based, mouse. Particulars: for tPA-induced increase in caspase-8 activation: tPA/NMDA treated neurons, APC 20 nM, z-IETD-fmk 20 μM, z-LEHD-fmk 5 μM. The protocol: (§1) Primary neuronal cultures were prepared from fetal C57BU6J mice as we have previously described^23. Cultures were maintained in serum-free NEUROBASAL medium plus B27 supplement (Gibco BRL, Rockville, Md.) in a humidified 5% CO2 incubator at 37° C. for 14 days before 3 hr to 24 hr treatment with tPA (20 μg/ml) alone, NMDA (25 μM)/5 μM glycine, or tPA plus NMDA. Ac-DEVD-CHO (50 μM), z-IETD-fmk (20 μM), or z-LEHD-fmk (5 μM) was applied 3 hr prior to tPA/NMDA treatment. Mouse recombinant APC (20 nM) was added 30 min before tPA/NMDA treatment.
(§2) BEC or cortical neuron lysate was incubated at 37° C. with caspase-3 (DEVD-pNA), caspase-8 (IETD-pNA) (ApoAlert caspase assay kit; Clontech, Palo Alto, Calif.), or caspase-9 (Ac-LEHD-pNA; Chemicon; Temecula, Calif.) substrate. Substrate hydrolysis was determined as absorbance change at 405 nm in a microplate reader^23. Enzymatic activity was expressed in arbitrary units per mg of protein.

In series [2] the test system is caspase-9. In words: Caspase-9 activity in BEC lysate. The series is classed as cell-based, human. Particulars: tPA 20 μg/ml plus hypoxia. On the procedure: (§3) Primary human BEC were isolated from rapid autopsies from neurologically normal young individuals after trauma and cultured as we have previously described^20. Cells were maintained in serum-free Dulbeco's Modified Eagle Medium and exposed for 1 hr to 16 hr to tPA (20 μg/ml) under normoxic conditions (20% oxygen, 5 mM glucose), hypoxia (<2% oxygen, no glucose), or to tPA plus hypoxia. Hypoxia was induced using an anaerobic chamber (Form a Scientific, Holbrook, N.Y.)^20. The levels of O2 were monitored by O2 Fyrite (Form a Scientific). z-IETD-fmk (10 μM) or z-LEHD-fmk (15 μM) was applied 2 hr prior to tPA/hypoxia treatment. Human APC (10 nM to 600 nM) was added at the time of tPA/hypoxia treatment. Caspase-3, -8 or -9 activity was determined in the presence of 400 nM APC.
as §2

Series [3] deals with caspase-3. In words: Caspase-3 activity in cortical neuron lysate. The series is classed as cell-based, mouse. On the procedure:
as §1, §2

The next series deals with p53, Bax, Bcl-2. The series is described as follows: Western blot of p53, Bcl-2 and Bax in NMDA-treated neurons. The class given is cell-based, mouse. The note with it: tPA plus NMDA vs NMDA. The protocol:
as §1
(§4) Whole cellular extracts, nuclear proteins, or cell membrane fractions were prepared as we have previously described^23. The relative abundance of each protein was determined by scanning densitometry using β-actin as an internal control. Data from multiple Western blots (n=3-5) were averaged for statistical analysis.
A general note: Immunoblotting shows a protein as a band on a membrane.

Series [4] deals with caspase-3. The series is described as follows: Caspase-3 activity in BEC lysate. The series is classed as cell-based, human. Particulars: for increase in caspase-3 activity compared to hypoxia alone: tPA plus hypoxia; for inhibition in caspase-3 activation in hypoxic BEC: absence of tPA; for inhibition in caspase-3 activation in hypoxic BEC / inhibition of caspase-3 activation in hypoxic BEC: z-IETD-fmk 10 μM, z-LEHD-fmk 15 μM applied 2 hr prior; for inhibition of caspase-3 activation in hypoxic BEC: presence of tPA. The protocol: as §3, §2

Series [5] deals with T1, NR1 or the NR2A subunit of the NMDA receptor (Mus musculus, UniProt P35436+P35438).
T1 construct: Western blot analysis of NR1 and NR2A subunits in membrane fractions 24 h after treatment with tPA; endogenous in cells; host or cells: primary cortical neurons from fetal C57BL/6J mice
The series is described as follows: Western blot of NR1 and NR2A subunits in membrane fractions after tPA. The series is classed as cell-based. Particulars: 24 h after treatment with tPA. The protocol: as §1, §4

The subject of series [6] is caspase-9. The series is described as follows: Caspase-9 activity in cortical neuron lysate. The series is classed as cell-based, mouse. On the procedure:
as §1, §2

In series [7] the test system is human BEC. In words: tPA/hypoxia in human BEC: apoptosis (TUNEL). The class given is cell-based. On the procedure: as §3
(§5) Cell injury in BEC was detected by the release of LDH (LDH assay, Sigma). The Hoechst dye (Hoechst 33,342, Sigma) and in situ terminal deoxynucleotidyl transferase-mediated digoxigenin-dUTP nick-end labeling (TUNEL) (Phoenix Flow Systems, San Diego, Calif.) assays were performed on acetone-fixed BEC or paraformaldexyde-fixed neurons. Images were visualized using a Nikon TE2000-U microscope.

The subject of series [8] is caspase-8. In words: Caspase-8 activity in BEC lysate. The class given is cell-based, human. Particulars: tPA plus hypoxia, at 1 hr; remained elevated over 16 hr vs hypoxia alone. The protocol: as §3, §2
The subject of a further series is mouse cortical neurons. The series is described as follows: tPA/NMDA-induced apoptosis in neurons. The class given is cell-based. The protocol: as §1, §5
The test system of series [9] is human BEC. In words: tPA/hypoxia in human BEC: cell injury by LDH release. The series is classed as cell-based. Particulars: for LDH release into the medium from ischemic BEC: tPA 20 μg/ml plus hypoxia/aglycemia. On the procedure: as §3, §5
A general note: LDH in the medium is a marker of cell lysis.

A further series concerns AIF. In words: Western blot of AIF in nuclear extracts of NMDA/tPA treated neurons. The note with it: for AIF nuclear translocation in the presence of tPA (NMDA/tPA injury): effect of APC or caspase inhibitor. The series is classed as cell-based, mouse. The protocol: as §1, §4
A further series has as its system mouse stroke model. In words: In vivo stroke model (45 min MCA occlusion/24 hr reperfusion). The note with it: tPA 10 mg/kg iv. The protocol: Protocols were approved by the Animal Care Committee at the University of Rochester using National Institutes of Health guidelines. Vehicle, tPA (10 mg/kg, 10% bolus/90% infusion), or tPA plus mouse recombinant APC (0.02 mg/kg to 1 mg/kg, 50% bolus/50% infusion) were administered via the femoral vein using separate intravenous lines and our previously described mouse stroke model^19,20 modified to 45 min MCA occlusion/24 hr reperfusion. tPA was infused during the last 10 min of MCA occlusion and for 20 min into reperfusion. APC was infused either simultaneously with tPA, after tPA infusion, or before tPA infusion. The dose of tPA used here has been frequently used in rodents and is considered to be equivalent to the therapeutic dose in humans^12,13,44,50. CBF was monitored by laser Doppler flowmetry (Transonic Systems)^19. Arterial blood gasses were measured^19. Neurological examinations were performed at 24 hr and scored: no neurological deficit (O), failure to extend left forepaw fully (1), turning to left (2), circling to left (3), unable to walk spontaneously (4), or stroke-related death (5). Neuropathological analysis was performed at 24 hr. Unfixed 1-mm coronal brain slices at the level of optic chiasm were incubated in 2% triphenyltetrazolium chloride in phosphate buffer (pH 7.4). Brain injury, infarct, and edema volumes were determined as previously described^19,20. Fibrin deposition was quantified by Western blotting with anti-fibrin II antibody (1:500, NYB-T2G1; Accurate Chemical Scientific Corp.)^19,20,30 and leukocytes were stained with CD11b antibody (1:250, DAKO Corp.)^19,20. Hemoglobin was determined by a spectrophotometric assay using Drabkin's reagent (Sigma) as we have previously described^19.

In a further series the test system is MMP-9. In words: MMP gelatin zymography of BEC conditioned medium. The series is classed as cell-based, human. The note with it: tPA 20 μg/ml, hypoxic BEC, 4 hr. The protocol: The conditioned medium from BEC exposed to tPA (20 μg/ml) or hypoxia for 4 hr, in the absence or presence of human APC (50 nM to 1,000 nM), was analyzed by gelatin zymography as previously described^11. […] MMP-9 activity was quantified as fold increase compared with normoxic controls.

This note sets out measurements from patent US20080305100A1, “Activated Protein C Inhibits Undesirable Effects of Plasminogen Activator in the Brain” (priority 2004, published 2008).

Turning to “tPA: Human recombinant tPA (alteplase, Genentech); in some in vitro studies human recombinant tPA from Sigma”, in the series with caspase-8 [1] (tPA 20 μg/ml plus NMDA 25 μM), the “caspase-8 in neurons, tPA/NMDA compared to NMDA alone” value is “robust activation”. Moreover, the “activation of caspase-8” value in the series with caspase-8 [1] (tPA alone, no NMDA) was “did not affect”. In addition, in the series with caspase-9 [2], the “caspase-9 activity in hypoxic BEC relative to hypoxia alone” value is reported as “did not produce a significant increase”. The “caspase-3 activation relative to NMDA alone” value in the series on caspase-3 [3] (tPA 20 μg/ml plus NMDA 25 μM) is recorded as “increased”. For the same substance, the “activation of caspase-3” value with caspase-3 [3] (tPA alone, no NMDA) is given as “did not affect”. The “NMDA-mediated increases in p53 and Bax expression, decrease in Bcl-2 expression” value with p53, Bax, Bcl-2 is recorded as “did not affect”. Further, the “increase in caspase-3 activity compared to hypoxia alone” value with caspase-3 [4] (at 4 hr) is recorded as 2.8 fold. The “increase in caspase-3 activity compared to hypoxia alone” value in the series on caspase-3 [4] (within 16 hr) is recorded as over 3.0 fold. Besides, in series [5], the “proteolytic effect on the NMDA receptor (NR1, NR2A subunit)” value was “failed to cleave”. Moreover, the “caspase-9 activation, tPA/NMDA compared to NMDA alone” value with caspase-9 [6] (tPA 20 μg/ml plus NMDA 25 μM) is listed as “did not alter”. Also, the “activation of caspase-9” value in the series on caspase-9 [6] (tPA alone, no NMDA) is recorded as “did not affect”. Besides, the “number of TUNEL-positive hypoxic BEC” value in the series with human BEC [7] (tPA plus hypoxia, 4 hr, 60% for hypoxia alone) is 100%. For the same substance, the “activation of caspase-8 in ischemic BEC” value with caspase-8 [8] was “early and sharp increase”. For the same substance, in the series with mouse cortical neurons (tPA 20 μg/ml, 24 hr after exposure to NMDA, vs NMDA alone), the “number of apoptotic neurons” value is “doubles”. In the series with mouse cortical neurons (tPA alone, no NMDA), the “effect on neuronal cells” value is “did not affect”. Further, the “LDH release into the medium from ischemic BEC” value in the series on human BEC [9] (2 hr, background values in the absence of tPA) is 50%. The “LDH release into the medium from ischemic BEC” value with human BEC [9] (4 hr, 57% in the absence of tPA) was found to be 95%. In the series with human BEC [9] (tPA alone, normoxia), the “LDH release from normoxic BEC” value is listed as “did not affect”. Also, in the series with AIF (tPA plus NMDA vs NMDA), the “increase of nuclear translocation of AIF in the presence of NMDA” value worked out at 50%. Besides, in the series with mouse stroke model, the “improvement of post-ischemic cerebral blood flow (CBF) vs vehicle” value is given as 35%, the “increase in the level of hemoglobin in the ischemic hemisphere” value was “greater than 3.0 fold” and the “ischemic brain fibrin deposition” value is given as “background level”. In the series on mouse stroke model (24 hr reperfusion), the “increase of volume of edema compared to controls” value is on record as 155%, the “increase of volume of infarction compared to controls” value is 75% and the “volume of cerebral injury compared to controls” value is “almost doubled”. The same substance had a motor neurological score in the series with mouse stroke model (24 hr, controls 2.3, scale 0-5) of 3.5. In the series with mouse stroke model (CD11b-positive leukocytes), the “increase of brain accumulation of leukocytes” value is on record as “about 65%”. Moreover, the “mice with substantial hemorrhage” value with mouse stroke model (MCA stroke model) is 6/6. Also, the “potentiation of hypoxia-induced MMP-9 activation” value with MMP-9 was “about 2.0 fold”.
As to z-IETD-fmk, in the series on caspase-8 [1], the “tPA-induced increase in caspase-8 activation” value is on record as “abolished”. In the series on caspase-3 [4], the “inhibition in caspase-3 activation in hypoxic BEC” value is recorded as “less than 15%” and the “inhibition of caspase-3 activation in hypoxic BEC” value is on record as “greater than 95%”. The “tPA-induced apoptosis in ischemic BEC” value with human BEC [7] (discussion summary) was “abolished”. The “tPA-induced apoptosis in NMDA-treated neurons” value in the series on mouse cortical neurons (discussion summary) is recorded as “abolished”. Further, in the series on AIF, the “AIF nuclear translocation in the presence of tPA (NMDA/tPA injury)” value (“AIF nuclear translocation … (NMDA/tPA injury)” for short) is “blocked”.
z-LEHD-fmk: the “tPA-induced increase in caspase-8 activation” value in the series on caspase-8 [1] is listed as “without effect”. The “reduction of caspase-3 activation in cells treated with NMDA alone” value in the series with caspase-3 [3] (NMDA alone, no tPA, z-LEHD-fmk 5 μM) is “greater than 80%”. Moreover, in the series with caspase-3 [4], the “inhibition in caspase-3 activation in hypoxic BEC” value is on record as “greater than 85%” and the “inhibition of caspase-3 activation in hypoxic BEC” value is given as “only slightly inhibited”. Also, the “AIF nuclear translocation … (NMDA/tPA injury)” value in the series with AIF was “much less effective”.
As to Ac-DEVD-CHO, the “AIF nuclear translocation … (NMDA/tPA injury)” value in the series on AIF is “blocked”.
